From article PMC4664966, “Discovery and characterization of novel inhibitors of the sodium-coupled citrate transporter (NaCT or SLC13A5)” (Scientific Reports, 2015)
pIC50: −log10 of the molar value. Converted amounts (≈) assume the structure as drawn.

Key:
[1] = biological target: Human ether-a-go-go (hERG) (Homo sapiens, UniProt Q12809); assay: Selectivity data (Table S1)
ATP-citrate lyase = ATP-citrate lyase (Homo sapiens, UniProt P53396); assay: ATP-citrate lyase interaction/inhibition; type: biochemical
[2] = biological target: Opioid receptor, kappa 1 (OPRK1) (Homo sapiens, UniProt P41145); assay: Selectivity data (Table S1); type: binding
Chain of Opioid receptor, kappa 1 (OPRK1) (P41145 whole entry): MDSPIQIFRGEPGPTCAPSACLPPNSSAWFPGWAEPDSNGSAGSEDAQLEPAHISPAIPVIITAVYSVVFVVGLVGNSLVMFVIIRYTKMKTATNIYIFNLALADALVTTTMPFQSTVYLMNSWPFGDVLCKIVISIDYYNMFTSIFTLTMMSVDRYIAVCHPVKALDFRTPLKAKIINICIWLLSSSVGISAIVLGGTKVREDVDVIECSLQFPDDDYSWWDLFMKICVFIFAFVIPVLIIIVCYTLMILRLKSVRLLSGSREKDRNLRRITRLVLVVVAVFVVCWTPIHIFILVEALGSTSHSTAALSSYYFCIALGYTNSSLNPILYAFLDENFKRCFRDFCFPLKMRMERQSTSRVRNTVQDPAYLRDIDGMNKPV

HepG2 cells = assay: Cellular toxicity in HepG2 cells; type: cell-based; conditions: concentrations up to 300 μM and 72 hours incubation
Androgen receptor = Androgen receptor (Homo sapiens, UniProt P10275); assay: Selectivity data (Table S1); type: binding
Chain of Androgen receptor (P10275 whole entry): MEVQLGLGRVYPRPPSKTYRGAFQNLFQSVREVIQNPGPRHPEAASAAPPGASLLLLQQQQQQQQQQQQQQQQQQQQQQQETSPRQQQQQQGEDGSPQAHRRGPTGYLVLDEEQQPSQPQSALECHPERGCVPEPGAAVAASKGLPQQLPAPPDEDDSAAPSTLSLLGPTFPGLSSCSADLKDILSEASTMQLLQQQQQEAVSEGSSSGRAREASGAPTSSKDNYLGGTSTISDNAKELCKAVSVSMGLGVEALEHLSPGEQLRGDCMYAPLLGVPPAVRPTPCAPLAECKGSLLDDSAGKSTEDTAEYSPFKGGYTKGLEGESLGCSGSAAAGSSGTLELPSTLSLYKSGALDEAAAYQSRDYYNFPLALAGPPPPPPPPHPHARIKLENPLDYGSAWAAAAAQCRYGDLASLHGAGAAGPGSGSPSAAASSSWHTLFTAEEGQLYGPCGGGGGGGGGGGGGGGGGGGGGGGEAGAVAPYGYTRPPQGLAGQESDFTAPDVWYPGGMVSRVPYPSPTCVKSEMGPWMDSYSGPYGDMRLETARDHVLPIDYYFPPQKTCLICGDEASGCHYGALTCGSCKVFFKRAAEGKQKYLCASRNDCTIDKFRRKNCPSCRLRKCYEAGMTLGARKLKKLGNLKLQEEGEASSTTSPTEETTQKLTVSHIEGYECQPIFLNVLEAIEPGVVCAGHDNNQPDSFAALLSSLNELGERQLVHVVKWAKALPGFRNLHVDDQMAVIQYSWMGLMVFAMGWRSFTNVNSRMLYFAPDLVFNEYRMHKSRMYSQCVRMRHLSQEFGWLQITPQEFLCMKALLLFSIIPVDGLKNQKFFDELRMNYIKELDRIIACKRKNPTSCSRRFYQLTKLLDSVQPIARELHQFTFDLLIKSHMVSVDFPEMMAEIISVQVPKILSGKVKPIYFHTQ

[3] = biological target: Adrenergic receptor, beta-1 (ADRB1) (Homo sapiens, UniProt P08588); assay: Selectivity data (Table S1); type: binding
Chain of Adrenergic receptor, beta-1 (ADRB1) (P08588 whole entry): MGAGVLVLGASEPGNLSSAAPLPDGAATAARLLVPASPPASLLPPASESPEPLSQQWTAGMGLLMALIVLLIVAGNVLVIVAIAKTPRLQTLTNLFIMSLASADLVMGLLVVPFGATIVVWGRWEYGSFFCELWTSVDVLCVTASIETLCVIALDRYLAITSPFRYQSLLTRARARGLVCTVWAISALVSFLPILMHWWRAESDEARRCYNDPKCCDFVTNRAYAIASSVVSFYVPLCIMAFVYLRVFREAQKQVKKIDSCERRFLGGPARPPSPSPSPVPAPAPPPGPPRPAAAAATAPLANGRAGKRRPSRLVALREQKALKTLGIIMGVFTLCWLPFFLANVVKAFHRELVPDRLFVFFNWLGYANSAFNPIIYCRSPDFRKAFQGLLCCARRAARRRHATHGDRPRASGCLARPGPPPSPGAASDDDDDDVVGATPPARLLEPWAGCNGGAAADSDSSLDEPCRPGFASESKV

[4] = biological target: Sodium channel, type V, alpha-subunit (NaV1.5) (Homo sapiens, UniProt Q14524); assay: Selectivity data (Table S1)
Aqueous solubility = type: physicochemical; conditions: aqueous medium at pH 7.4, pH 7.4, aqueous buffer; read-out: Solubility7.4
[5] = biological target: ATP-binding cassette, sub-family B, member 11 (ABCB11) (Homo sapiens, UniProt O95342); assay: Selectivity data (Table S1)
[6] = biological target: Arginine vasopressin receptor 1A (AVPR1A) (Homo sapiens, UniProt P37288); assay: Selectivity data (Table S1); type: binding
[7] = biological target: Adrenergic receptor, alpha-2A (ADRA2A) (Homo sapiens, UniProt P08913); assay: Selectivity data (Table S1); type: binding
Chain of Adrenergic receptor, alpha-2A (ADRA2A) (P08913 whole entry): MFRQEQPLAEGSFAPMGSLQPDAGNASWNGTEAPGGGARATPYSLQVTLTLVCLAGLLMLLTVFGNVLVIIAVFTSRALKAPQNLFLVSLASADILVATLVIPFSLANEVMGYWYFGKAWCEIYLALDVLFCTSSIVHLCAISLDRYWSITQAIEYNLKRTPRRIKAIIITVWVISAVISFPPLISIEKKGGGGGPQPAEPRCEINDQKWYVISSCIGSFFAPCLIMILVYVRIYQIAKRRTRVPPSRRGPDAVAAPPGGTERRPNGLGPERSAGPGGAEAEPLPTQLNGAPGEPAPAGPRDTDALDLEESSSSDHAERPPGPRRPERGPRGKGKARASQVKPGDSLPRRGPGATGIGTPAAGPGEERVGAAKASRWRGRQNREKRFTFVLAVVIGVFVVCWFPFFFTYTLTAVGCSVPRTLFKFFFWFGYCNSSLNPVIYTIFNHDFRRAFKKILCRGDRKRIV

[8] = biological target: Phosphodiesterase 5A1 (PDE5A1) (Homo sapiens, UniProt O76074); assay: Selectivity data (Table S1); type: biochemical
[9] = biological target: Dopamine transporter, sodium-dependent (DAT) (Homo sapiens, UniProt Q01959); assay: Selectivity data (Table S1)
Chain of Dopamine transporter, sodium-dependent (DAT) (Q01959 whole entry): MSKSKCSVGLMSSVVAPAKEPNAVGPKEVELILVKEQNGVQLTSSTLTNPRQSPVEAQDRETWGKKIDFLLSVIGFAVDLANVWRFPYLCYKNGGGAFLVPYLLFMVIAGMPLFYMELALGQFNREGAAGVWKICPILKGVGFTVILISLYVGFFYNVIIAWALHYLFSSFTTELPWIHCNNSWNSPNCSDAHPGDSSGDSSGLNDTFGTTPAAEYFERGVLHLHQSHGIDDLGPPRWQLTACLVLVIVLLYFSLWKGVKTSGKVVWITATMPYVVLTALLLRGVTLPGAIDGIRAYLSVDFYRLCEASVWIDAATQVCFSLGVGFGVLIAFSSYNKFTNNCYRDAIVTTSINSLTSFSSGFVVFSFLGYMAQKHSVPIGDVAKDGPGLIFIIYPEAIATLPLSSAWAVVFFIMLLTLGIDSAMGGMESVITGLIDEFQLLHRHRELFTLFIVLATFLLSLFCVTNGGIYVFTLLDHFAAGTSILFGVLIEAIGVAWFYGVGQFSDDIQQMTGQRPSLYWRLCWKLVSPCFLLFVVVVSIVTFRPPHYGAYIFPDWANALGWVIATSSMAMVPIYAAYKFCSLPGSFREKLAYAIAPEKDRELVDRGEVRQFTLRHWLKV

Plasma fraction unbound = type: in vitro ADME; conditions: mouse, read-out: mouse plasma fu
[10] = biological target: Cytochrome P450 2D6 (CYP2D6) (Homo sapiens, UniProt P10635); assay: Selectivity data (Table S1); type: in vitro ADME
Chain of Cytochrome P450 2D6 (CYP2D6) (P10635 whole entry): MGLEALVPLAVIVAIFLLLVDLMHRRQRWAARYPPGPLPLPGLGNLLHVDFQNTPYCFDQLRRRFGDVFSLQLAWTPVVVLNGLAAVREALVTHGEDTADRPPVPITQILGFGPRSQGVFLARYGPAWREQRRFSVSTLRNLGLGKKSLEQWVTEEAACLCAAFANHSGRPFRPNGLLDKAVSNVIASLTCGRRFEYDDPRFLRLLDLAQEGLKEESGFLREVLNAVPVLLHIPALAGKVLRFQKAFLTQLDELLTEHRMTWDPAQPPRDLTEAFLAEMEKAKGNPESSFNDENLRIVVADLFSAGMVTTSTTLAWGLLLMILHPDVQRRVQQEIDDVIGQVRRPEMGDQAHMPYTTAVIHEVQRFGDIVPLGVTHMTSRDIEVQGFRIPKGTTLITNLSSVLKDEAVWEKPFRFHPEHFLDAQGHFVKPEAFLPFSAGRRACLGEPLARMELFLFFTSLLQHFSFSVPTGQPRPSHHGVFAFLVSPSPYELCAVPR

CYP2D6 = CYP2D6 (Homo sapiens, UniProt P10635); assay: Selectivity data (Table S1); type: in vitro ADME; conditions: 3 µM
Chain of CYP2D6 (P10635 whole entry): as above

[11] = Passive permeability, MDCK-LE cell monolayer; type: in vitro ADME; conditions: dog; MDCK-LE cell monolayer; read-out: Papp (apparent passive permeability)
Experimental: Passive permeability was assessed using MDCK-LE cell monolayer as described previously in Di et al., (2011)[44].

Histamine receptor (H3) = Histamine receptor (H3) (Homo sapiens, UniProt Q9Y5N1); assay: Selectivity data (Table S1); type: binding
Chain of Histamine receptor (H3) (Q9Y5N1 whole entry): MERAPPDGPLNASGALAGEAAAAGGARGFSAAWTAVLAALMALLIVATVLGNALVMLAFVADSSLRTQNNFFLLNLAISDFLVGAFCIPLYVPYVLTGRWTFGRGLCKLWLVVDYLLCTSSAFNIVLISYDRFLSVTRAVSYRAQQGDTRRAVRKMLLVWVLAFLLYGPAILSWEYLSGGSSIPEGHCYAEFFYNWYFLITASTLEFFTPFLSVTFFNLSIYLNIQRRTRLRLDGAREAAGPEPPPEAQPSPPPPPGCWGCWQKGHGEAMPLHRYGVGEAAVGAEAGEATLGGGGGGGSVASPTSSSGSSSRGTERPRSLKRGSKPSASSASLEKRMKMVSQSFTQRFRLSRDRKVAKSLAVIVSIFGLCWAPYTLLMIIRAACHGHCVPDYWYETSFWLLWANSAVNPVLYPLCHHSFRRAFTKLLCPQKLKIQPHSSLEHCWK

[12] = biological target: Phosphodiesterase 4D3 (PDE4D3) (Homo sapiens, UniProt Q08499); assay: Selectivity data (Table S1); type: biochemical

Chain of Human ether-a-go-go (hERG) (Q12809 whole entry): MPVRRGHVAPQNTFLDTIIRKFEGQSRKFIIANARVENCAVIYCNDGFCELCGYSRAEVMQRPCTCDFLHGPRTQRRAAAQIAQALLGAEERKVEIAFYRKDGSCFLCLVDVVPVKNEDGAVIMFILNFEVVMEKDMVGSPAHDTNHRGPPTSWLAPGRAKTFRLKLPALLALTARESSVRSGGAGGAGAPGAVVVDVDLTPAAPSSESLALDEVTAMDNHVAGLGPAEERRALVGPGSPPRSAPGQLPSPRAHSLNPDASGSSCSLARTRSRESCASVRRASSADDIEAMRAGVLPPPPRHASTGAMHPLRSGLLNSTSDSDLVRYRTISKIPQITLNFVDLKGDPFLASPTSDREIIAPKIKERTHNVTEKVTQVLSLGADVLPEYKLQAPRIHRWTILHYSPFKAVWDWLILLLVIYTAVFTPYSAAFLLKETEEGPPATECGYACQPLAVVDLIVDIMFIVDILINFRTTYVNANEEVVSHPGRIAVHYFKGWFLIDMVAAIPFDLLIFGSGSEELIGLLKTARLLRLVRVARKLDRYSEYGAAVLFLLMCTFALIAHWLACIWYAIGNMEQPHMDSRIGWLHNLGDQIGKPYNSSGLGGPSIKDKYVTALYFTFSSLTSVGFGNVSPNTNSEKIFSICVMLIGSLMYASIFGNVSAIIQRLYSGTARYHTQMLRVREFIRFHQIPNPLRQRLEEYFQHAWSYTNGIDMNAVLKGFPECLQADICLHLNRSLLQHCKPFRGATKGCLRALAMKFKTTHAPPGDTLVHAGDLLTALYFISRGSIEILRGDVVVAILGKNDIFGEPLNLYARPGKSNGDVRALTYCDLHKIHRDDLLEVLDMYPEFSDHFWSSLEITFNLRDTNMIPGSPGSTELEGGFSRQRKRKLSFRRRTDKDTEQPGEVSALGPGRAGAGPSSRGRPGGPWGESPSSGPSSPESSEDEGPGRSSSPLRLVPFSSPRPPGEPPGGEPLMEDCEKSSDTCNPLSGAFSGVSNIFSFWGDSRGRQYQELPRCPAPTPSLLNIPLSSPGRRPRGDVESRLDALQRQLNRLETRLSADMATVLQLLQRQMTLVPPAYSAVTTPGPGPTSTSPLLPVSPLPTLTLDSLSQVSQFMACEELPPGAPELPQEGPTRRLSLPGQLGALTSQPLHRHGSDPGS

With `CC(C)(C)c1ccc(CC[C@@](O)(CC(=O)O)C(=O)O)cc1` [Compound 2] the pIC50 [1] was less than 4.00, the “interaction/inhibition of the hERG channel” value [1] was “no significant interaction/inhibition” and the “interaction/inhibition of ATP-citrate lyase” value (ATP-citrate lyase) was “no significant interaction/inhibition”. The inhibition at 100 µM [2] was 13%, the cellular toxicity (HepG2 cells) was “no observable toxicity” and the inhibition at 100 µM (Androgen receptor) was less than 10%. It also gave an inhibition at 100 µM [3] of less than 10%, an inhibition at 10 µM [4] of less than 10% and a solubility (Aqueous solubility) of 33 mM (≈ 9710 µg/mL). The pIC50 [5] was less than 3.70, the inhibition at 100 µM [6] was less than 10% and the inhibition at 100 µM [7] was less than 10%. For the same compound, the pIC50 [8] was less than 4.52, the inhibition at 100 µM [9] was less than 10% and the fraction unbound (Plasma fraction unbound) was 0.26. For the same compound, the “interaction/inhibition of CYP2D6” value [10] was “no significant interaction/inhibition”, the inhibition at 3 µM (CYP2D6) was less than 10% and the Papp [11] was 14 nm/s. It also gave an inhibition at 100 µM (Histamine receptor (H3)) of less than 10% and a pIC50 [12] of less than 4.52.
